Source: patent publication US11072637B2, “Walnut oligopeptide powder, preparation method and application thereof” (Sinphar Tian-Li (Hangzhou) Pharmacy Company Limited, priority 2016, dated 2021)
Where “and” joins values, the source holds several entries; their conditions need not be identical. Equal entries are not always repeated. Non-standard residues stand in square brackets, D forms with d. Residues, ends and D or L forms follow the SMILES beside them. pGlu = O=C1CC[C@@H](C(=O)O)N1; Thz = O=C(O)[C@@H]1CSCN1

How the values were obtained:
H2O2 induced PC12 cell = assay: Protection of PC12 cells against hydrogen peroxide damage (MTT); type: cell-based; conditions: 80 μg/ml, 6 hours pre-culture, then 100 μM H2O2 12 hours; model group 57.2
Protocol: PC12 nerve cell protection model: This is a good model for studying nerve cell physiology, pathology and pharmacology, and also a most common in-vitro drug screening model for studying Parkinson's disease and neuro-fatigue.
PC12 cells were cultured by using a high-sugar DMEM culture medium containing 10% fetal calf serum, and digesting for about 50 seconds by using 0.25% of pancreatin during cell passage, stopping digestion by using a DMEM culture medium containing 10% serum, and adding fresh culture medium to blow the cells uniformly. Cell density passage of 10^5/ml was carried out. 4 ml of culture solution containing cells was added to each bottle of cells, culturing under the conditions of 37° C. and 5% CO2. […]
The 96-well plate was respectively given to 100 μL of the walnut oligopeptide by a certain concentration gradient in each hole, after culturing for 24 hours, the cell vitality was detected by MTT method. […] The cell activity of the model group and the drug delivery group was calculated by taking the average value of the OD value of the control group as 100% of the cell activity. […]
The above groups were cultured under the same conditions, and then subsequent experiments were carried out. The cell activity was detected by MTT method in 96-well plates.

[1] = system: central nervous system of zebra fishes; assay: Protection of zebra fish central nervous system (mycophenolate-induced injury); type: in vivo; conditions: 154 μg/mL
Protocol: Protection Effect of the Walnut Oligopeptide Powder on the Central Nervous Centrum of Zebra Fishes 180 wild type AB strain zebra fishes after fertilization in […] (1 dpf) were selected randomly and were arranged in six-well plate, and 30 tail zebra fishes were treated in each hole (the experiment group), and central injury of the zebra fishes was induced by the mycophenolate mophol ester. […] After the oligopeptide was subjected to co-treatment for 24 hours with the mycophenolate, the acridine orange was used for dyeing, after dyeing, 10 tail zebra fishes from each experimental group were selected randomly to photograph under fluorescence microscope and collect data, analyzing and counting the fluorescent intensity of the apoptotic cells of central nervous system (brain and spinal cord) of the zebra fishes; the protective effect of the walnut oligopeptide powder on the central nervous system of zebra fishes was evaluated according to the fluorescence intensity.

[2] = system: Scopolamine-Induced Memory Acquisition Impairment of the Mice; assay: Scopolamine-induced memory acquisition impairment of mice (jumping table); type: in vivo, ICR mouse; conditions: scopolamine model, 30 mg/kg
Protocol: (§1) 1. Test Animal The test animal was a cleaning-grade ICR mouse with 18-22 g in weight, the three batches of 300 were provided by Nantong University. Laboratory animal production license is SCXK (Su) 2014-0001, fed by conventional mouse feedstuff, and free drinking water. Before the experiment they were fed in a quiet environment for 1 week, freely-feeding and drinking water, and keeping the room temperature (22±1° C.) and natural day and night rhythm illumination. 2.1 Influence on Scopolamine-Induced Memory Acquisition Impairment of Mouse The mouse was randomly grouped and low, medium and high dosage groups (30, 100 and 300 mg/kg) of walnut oligopeptide (preparation example 1) was provided, the blank group and the model group were given equal-volume distilled water respectively, and 30 mg/kg of nimodipine was administrated in positive control group, respectively filling the stomach for one time every day in each group, and continuously feeding the medicines for 7 days. Jump-table training. […] During testing, the mouse were placed on the jumping table, and time was counted at the same time. The first jumping time of the mouse was recorded, and it was an electric shock incubation period (namely, an error incubation period) and recording the times of jumping within 5 minutes (i.e., the times of errors), was recorded as observation index.

[3] = system: 40% Ethanol-Induced Memory Reproduction Disorder of Mice; assay: 40% ethanol-induced memory reproduction disorder of mice (jumping table); type: in vivo, ICR mouse; conditions: 40% ethanol model, 30 mg/kg
Protocol: as §1, with “The” for “1. Test Animal The”, “illumination.” for “illumination. 2.1 Influence on Scopolamine-Induced Memory Acquisition Impairment of Mouse”, “index. […]” for “index.”

[4] = system: Sodium Nitrite-Induced Memory Consolidation Disorder of Mice; assay: Sodium nitrite-induced memory consolidation disorder of mice (jumping table); type: in vivo, ICR mouse; conditions: sodium nitrite model, 30 mg/kg
Protocol: as §1, with “The” for “1. Test Animal The”, “illumination.” for “illumination. 2.1 Influence on Scopolamine-Induced Memory Acquisition Impairment of Mouse”, “index. […]” for “index.”

zebra fish macrophages [5] = assay: Promotion of phagocytosis function of zebra fish macrophages (ink model); type: in vivo; conditions: 200 μg/mL
Protocol: 2. Promotion Effect of Walnut Oligopeptide Powder on Phagocytosis Function of Zebra Fish Macrophages
Zebra fish macrophage promoting model inhibition model was built by intravenous injection of ink in 2 days (2 dpf) zebra fishes after fertilization. respectively dissolved in fish water to give the walnut oligopeptide and the positive drug pidotimod, […], and the concentration of the pidotimod is 200 […]. Meanwhile, model control group and normal control group were set, in which 30 tail zebra fishes are in each experimental group, and each group was placed in a 28 L incubator to be cultured. When processing to 3 dpf, the zebra fishes in each experiment group were subjected to neutral red staining, after dyeing for 4 hours, 10-tail zebra fishes from each experimental group were selected to be observed under microscope randomly, and photos were taken and stored; image analysis for the ink signal of the zebra fish macrophages was carried out by image processing software. The improvement effect of four test samples on phagocytosis function of the zebra fish macrophages was quantitatively evaluated.

zebra fish macrophages [6] = assay: Improvement of zebra fish macrophage inhibition (vinorelbine model); type: in vivo; conditions: for number of macrophages of the zebra fish head, Mean ± SD(count): 1.9 μg/mL in fish water, model control 15, normal control 27, n = 10
Protocol: Improvement Effect of Walnut Oligopeptide Powder on Inhibition of Zebra Fish Macrophages […] Meanwhile, model control group and normal control group were set (no treatment was carried out), in which 30 tail zebra fishes were in each experimental group, and each group was placed in a 28 L incubator to be cultured. When processing to 3 dpf, the zebra fishes in each experiment group were subjected to neutral red staining. After dyeing for 4 hours, 10-tail zebra fishes from each experimental group were selected to be observed under microscope randomly, and photos were taken and stored. Image analysis for the number of the zebra fish macrophages was carried out by image processing software. The improvement effect of the walnut oligopeptide powder on inhibition of the zebra fish macrophage was quantitatively evaluated.

CC(=O)N[C@@H](CS)C(=O)O [Positive group, NAC]
Cell activity(%) (H2O2 induced PC12 cell): 88.0%

N[C@@H](CCC(=O)N[C@@H](CS)C(=O)NCC(=O)O)C(=O)O [GSH, glutathione]
Protection Effect on Central Nervous System (%) [1]: 92%
fluorescence intensity of central apoptosis cell (pixel)(mean ± SE) ([1]; 24 hours co-treatment with mycophenolate, model 565783, normal 161976): 190000 pixel and 193900 ± 8302 pixel

COCCOC(=O)C1=C(C)NC(C)=C(C(=O)OC(C)C)C1c1cccc([N+](=O)[O-])c1 (centres unmarked) [Nimodipine, nimodipine]
Incubation Period ([2]; gavage once daily 7 days, n = 10, model 14.6): 35.9 ± 30.3 s
Times of Error (n) ([2]; within 5 minutes, model 3.5): 2.0 ± 1.4 n
Incubation Period ([3]; gavage once daily 7 days, n = 8, model 46.3): 99.6 ± 98.7 s
Times of Error (n) ([3]; within 5 minutes, model 5.7): 2.5 ± 1.4 n
Incubation Period ([4]; gavage once daily 7 days, n = 10, model 94.7): 237.7 ± 79.7 s
Times of Error (n) ([4]; within 5 minutes, model 3.6): 1.0 ± 1.2 n

O=C1CC[C@@H](C(=O)N2CSC[C@H]2C(=O)O)N1 [pidotimod] ([pGlu]-[Thz]-OH)
Promotion Effect (time) (zebra fish macrophages [5]; compared with model control group): 2.3 time
number of macrophages of the phagocytosis ink, Mean ± SD(count) (zebra fish macrophages [5]; model control 1.5, n = 10): 3.5 count and 3.5 ± 1.8 count

COc1ccc2cc3[n+](cc2c1OC)CCc1cc2c(cc1-3)OCO2 [Berberine, berberine]
number of macrophages of the zebra fish head, Mean ± SD(count) (zebra fish macrophages [6]): 20 ± 4 count
number of macrophages of the zebra fish head, Mean ± SD(count) (zebra fish macrophages [6]; listed as berberine): 20 count
Improvement Effect (%) (zebra fish macrophages [6]; 1.9 μg/mL, compared with model control group): 41.67%
